19 compounds from US9637453B2, “3-spirocyclic-6-hydroxamic acid tetralins as HDAC inhibitors” (Forma Therapeutics, Inc., priority 2015, dated 2017) can be followed below.

For test [1], the target named is T1, Full length human recombinant HDAC6 (Homo sapiens, UniProt Q9UBN7).
T1 construct: Full length human recombinant HDAC6 and HDAC11 proteins were expressed in baculoviral system
T1 sequence (Q9UBN7 1-1215): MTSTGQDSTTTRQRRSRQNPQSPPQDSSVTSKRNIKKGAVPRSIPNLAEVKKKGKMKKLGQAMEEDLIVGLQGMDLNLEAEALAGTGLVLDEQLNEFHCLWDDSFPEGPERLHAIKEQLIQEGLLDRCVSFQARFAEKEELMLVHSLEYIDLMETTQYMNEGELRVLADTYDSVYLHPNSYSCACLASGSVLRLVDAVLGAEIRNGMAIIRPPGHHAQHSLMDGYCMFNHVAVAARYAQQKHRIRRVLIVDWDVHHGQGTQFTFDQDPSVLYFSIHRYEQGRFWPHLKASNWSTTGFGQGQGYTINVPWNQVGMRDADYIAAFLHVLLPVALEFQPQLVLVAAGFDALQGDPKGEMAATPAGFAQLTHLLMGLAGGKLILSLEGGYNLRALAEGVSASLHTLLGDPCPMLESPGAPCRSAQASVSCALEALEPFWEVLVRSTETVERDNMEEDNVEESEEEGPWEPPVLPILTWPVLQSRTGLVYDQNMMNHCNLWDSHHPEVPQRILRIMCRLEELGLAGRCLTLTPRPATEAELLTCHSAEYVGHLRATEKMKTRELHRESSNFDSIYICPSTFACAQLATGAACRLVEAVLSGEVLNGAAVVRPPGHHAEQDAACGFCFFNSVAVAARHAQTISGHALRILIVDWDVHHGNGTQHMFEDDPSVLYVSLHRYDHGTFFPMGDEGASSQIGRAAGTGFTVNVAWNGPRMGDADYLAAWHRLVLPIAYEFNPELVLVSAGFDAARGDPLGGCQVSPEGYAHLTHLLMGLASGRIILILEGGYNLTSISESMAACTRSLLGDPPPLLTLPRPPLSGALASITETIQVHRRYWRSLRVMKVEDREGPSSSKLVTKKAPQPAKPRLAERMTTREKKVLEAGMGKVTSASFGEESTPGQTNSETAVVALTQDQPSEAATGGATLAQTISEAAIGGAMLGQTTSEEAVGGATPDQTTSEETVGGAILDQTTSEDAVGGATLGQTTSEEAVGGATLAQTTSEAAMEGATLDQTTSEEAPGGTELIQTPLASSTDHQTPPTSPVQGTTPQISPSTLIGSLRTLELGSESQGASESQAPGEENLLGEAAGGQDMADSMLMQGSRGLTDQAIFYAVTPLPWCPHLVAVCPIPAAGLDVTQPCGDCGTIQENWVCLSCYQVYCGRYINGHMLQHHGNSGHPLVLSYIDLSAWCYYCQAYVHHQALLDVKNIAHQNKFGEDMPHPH
The experiment in a line: In vitro histone deacetylase assay, enzymatic HDAC6 (electrophoretic mobility shift assay). It counts as biochemical. The settings on record: 1 nM HDAC6; 2 μM peptide substrate FAM-RHKK(Ac)—NH2; 25° C.; 12 concentrations; read-out: HDAC6 Activity Range (IC50). The method, then: (§1) The enzymatic HDAC6 and HDAC11 assays were performed using electrophoretic mobility shift assay. Full length human recombinant HDAC6 and HDAC11 proteins were expressed in baculoviral system and purified by affinity chromatography. The enzymatic reactions were assembled in 384 well plates in a total volume of 25 μL in a reaction buffer composing: 100 mM HEPES, pH 7.5, 25 mM KCl, 0.1% bovine serum albumin, 0.01% Triton X-100, 1% DMSO (from compounds) 2 μM of the fluorescently labeled peptide substrate and enzyme. The enzymes were added at a final concentration of 1 nM for HDAC6, and 10 nM for HDAC11. The peptide substrate FAM-RHKK(Ac)—NH2 was used for HDAC6, and FAM-RHKK(tri-fluor-Ac)—NH2 for HDAC11. The compounds were tested at 12 concentrations spaced by 3× dilution intervals. Negative control samples (0%-inhibition in the absence of inhibitor) and positive control samples (100%-inhibition) were assembled in replicates of four in each assay plate. The reactions were incubated at 25° C. and quenched by the addition of 45 μL of termination buffer (100 mM HEPES, pH 7.5, 0.01% Triton X-100, 0.05% SDS).
(§2) The terminated assay plates were analyzed on LabChip® 3000 microfluidic electrophoresis instrument (Perkin Elmer/Caliper Life Sciences). The fluorescence intensity of the electrophoretically separated de-acetylated product and substrate peptide was measured. Activity in each sample was determined as the product to sum ratio (PSR): P/(S+P), where P is the peak height of the product peptide and S is the peak height of the substrate peptide. Percent inhibition (Pinh) is determined using following equation:
(§3) Pinh=(PSR0%−PSRinh)/(PSR0%−PSR100%)*100, where PSRinh is the product sum ratio in the presence of inhibitor, PSR0% is the average product sum ration in the absence of inhibitor and PSR100% is the average product sum ratio in 100%-inhibition control samples. The IC50 values of inhibitors were determined by fitting the %-inhibition curves with 4 parameter dose-response model using XLfit 4 software.
(§4) As set forth in Table-26 and Table-27, below, IC5o values are defined as follows: IC50≦0.1 μM (+++); IC50>0.1 μM and ≦0.5 μM (++); IC50>0.5 μM (+).
In general terms: In EMSA bound probe runs differently from free probe, usually more slowly.

Test [2] deals with T2, Full length human recombinant HDAC11 (Homo sapiens, UniProt Q96DB2).
T2 construct: Full length human recombinant HDAC6 and HDAC11 proteins were expressed in baculoviral system
T2 sequence (Q96DB2 1-347): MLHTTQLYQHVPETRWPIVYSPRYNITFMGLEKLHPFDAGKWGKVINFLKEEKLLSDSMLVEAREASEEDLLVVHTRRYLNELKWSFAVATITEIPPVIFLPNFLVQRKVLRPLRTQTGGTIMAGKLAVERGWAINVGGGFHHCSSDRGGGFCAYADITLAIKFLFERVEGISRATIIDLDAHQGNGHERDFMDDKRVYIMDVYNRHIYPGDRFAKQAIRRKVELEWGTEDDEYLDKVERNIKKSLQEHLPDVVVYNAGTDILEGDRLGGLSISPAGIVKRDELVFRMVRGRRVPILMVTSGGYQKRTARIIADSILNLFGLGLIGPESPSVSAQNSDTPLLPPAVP
The experiment in a line: In vitro histone deacetylase assay, enzymatic HDAC11 (electrophoretic mobility shift assay). It is filed as biochemical. The settings on record: 10 nM HDAC11; 2 μM peptide substrate FAM-RHKK(tri-fluor-Ac)—NH2; 25° C.; 12 concentrations; read-out: HDAC11 Activity Range (IC50). How it is done:
as §1, §2, §3, §4

pIC50: −log10 of the molar value. Some results are limits rather than exact numbers.

As a reminder, the pIC50 is the negative decadic logarithm of the IC50, by convention in mol/L. Consider `O=C(NO)c1ccc2c(c1)C[C@@]1(CC2)CC(=O)N(C2CCCC2)C1` [Compound I-153, (S)-1′-cyclopentyl-N-hydroxy-5′-oxo-3,4-dihydro-1H-spiro[naphthalene-2,3′-pyrrolidine]-7-carboxamide], for which, in test [1], the pIC50 is no less than 7.00.
In the case of `O=C(NO)c1ccc2c(c1)CC1(CC2)CCN(c2ccccc2)C1=O` (stereo not shown) [Compound I-26, N-hydroxy-2′-oxo-1′-phenyl-3,4-dihydro-1H-spiro[naphthalene-2,3′-pyrrolidine]-7-carboxamide], the pIC50 is no less than 7.00 in test [1] and 6.30 to 7.00 in test [2].
The corresponding values for `O=C(NO)c1ccc2c(c1)C[C@@]1(CC2)CCN(Cc2ccc(C(F)(F)F)cc2)C1=O` [Compound I-126, (S)—N-hydroxy-2′-oxo-1′-(4-(trifluoromethyl)benzyl)-3,4-dihydro-1H-spiro[naphthalene-2,3′-pyrrolidine]-7-carboxamide] are no less than 7.00 and no less than 7.00.
For `O=C(NO)c1ccc2c(c1)C[C@]1(CC2)CCN(CC(=O)N2CCOCC2)C1=O` [Compound I-92, (R)—N-hydroxy-1′-(2-morpholino-2-oxoethyl)-2′-oxo-3,4-dihydro-1H-spiro[naphthalene-2,3′-pyrrolidine]-7-carboxamide], the pIC50 in test [1] was no less than 7.00; in test [2] it was less than 6.30.
In the case of `O=C(NO)c1ccc2c(c1)C[C@]1(CC2)CCN(Cc2ccc(C(F)(F)F)cc2)C1=O` [Compound I-127, (R)—N-hydroxy-2′-oxo-1′-(4-(trifluoromethyl)benzyl)-3,4-dihydro-1H-spiro[naphthalene-2,3′-pyrrolidine]-7-carboxamide], the figures for the pIC50 in test [1] and in test [2] were no less than 7.00 and 6.30 to 7.00, respectively.
With `CN1CC[C@]2(CCc3ccc(C(=O)NO)cc3C2)C1` [Compound I-19, (R)—N-hydroxy-1′-methyl-3,4-dihydro-1H-spiro[naphthalene-2,3′-pyrrolidine]-7-carboxamide], the results for the negative logarithm of the IC50 (pIC50) in test [1] and in test [2] were 6.30 to 7.00 and less than 6.30, respectively.
Regarding `O=C(NO)c1ccc2c(c1)C[C@]1(CC2)CCN(c2cccc(OCCN3CCOCC3)c2)C1=O` [Compound I-117, (R)—N-hydroxy-1′-(3-(2-morpholinoethoxy)phenyl)-2′-oxo-3,4-dihydro-1H-spiro[naphthalene-2,3′-pyrrolidine]-7-carboxamide], the negative-log IC50 (pIC50) in test [1] is no less than 7.00; in test [2], less than 6.30.
For `COc1ccc(CCN2CCC3(CCc4ccc(C(=O)NO)cc4C3)C2=O)cc1` (stereo not shown) [Compound I-20, N-hydroxy-1′-(4-methoxyphenethyl)-2′-oxo-3,4-dihydro-1H-spiro[naphthalene-2,3′-pyrrolidine]-7-carboxamide] the same measures were no less than 7.00 and 6.30 to 7.00.
Regarding `O=C(NO)c1ccc2c(c1)CC1(CC2)CCN(C2CCCCC2)C1` (stereo not shown) [Compound I-5, 1′-cyclohexyl-N-hydroxy-3,4-dihydro-1H-spiro[naphthalene-2,3′-pyrrolidine]-7-carboxamide], the negative logarithm of the IC50 (pIC50) in test [1] was no less than 7.00; in test [2], less than 6.30.
The corresponding values for `O=C(NO)c1ccc2c(c1)C[C@]1(CC2)CC(=O)N(C2CC2)C1` [Compound I-148, (R)-1′-cyclopropyl-N-hydroxy-5′-oxo-3,4-dihydro-H-spiro[naphthalene-2,3′-pyrrolidine]-7-carboxamide] are no less than 7.00 and less than 6.30.
For `O=C(NO)c1ccc2c(c1)CC1(CC2)CCN(S(=O)(=O)C2CCCCC2)C1` (stereo not shown) [Compound I-7, 1′-(cyclohexylsulfonyl)-N-hydroxy-3,4-dihydro-1H-spiro[naphthalene-2,3′-pyrrolidine]-7-carboxamide] the same measures were no less than 7.00 and less than 6.30.
Take `O=C(NO)c1ccc2c(c1)CC1(CC2)CCN(C(=O)Nc2ccccc2)C1` (stereo not shown) [Compound I-6, N7-hydroxy-N1′-phenyl-3,4-dihydro-1H-spiro[naphthalene-2,3′-pyrrolidine]-1′,7-dicarboxamide]: the values for the pIC50 in test [1] and in test [2] were no less than 7.00 and 6.30 to 7.00, respectively.
For `COc1ccccc1CN1CCC2(CCc3ccc(C(=O)NO)cc3C2)C1` (stereo not shown) [Compound I-15, N-hydroxy-1′-(2-methoxybenzyl)-3,4-dihydro-1H-spiro[naphthalene-2,3′-pyrrolidine]-7-carboxamide] the same measures were no less than 7.00 and less than 6.30.
With `O=C(NO)c1ccc2c(c1)C[C@]1(CC2)CCN(Cc2ccccc2Cl)C1=O` [Compound I-89, (R)-1′-(2-chlorobenzyl)-N-hydroxy-2′-oxo-3,4-dihydro-1H-spiro[naphthalene-2,3′-pyrrolidine]-7-carboxamide], the pIC50 in test [1] and in test [2] was no less than 7.00 each time.
As to `O=C(NO)c1ccc2c(c1)OC1(CC2)CCN(S(=O)(=O)C2CCCCC2)CC1` [II-3, 1′-(cyclohexylsulfonyl)-N-hydroxyspiro[chromane-2,4′-piperidine]-7-carboxamide], the pIC50 in test [1] and in test [2] was no less than 7.00 each time.
Turning to `O=C(NO)c1ccc2c(c1)C[C@@]1(CC2)CCN(c2cccnc2)C1=O` [Compound I-28, (S)—N-hydroxy-2′-oxo-1′-(pyridin-3-yl)-3,4-dihydro-1H-spiro[naphthalene-2,3′-pyrrolidine]-7-carboxamide], the pIC50 is no less than 7.00 in test [1] and 6.30 to 7.00 in test [2].
As to `O=C(NO)c1ccc2c(c1)C[C@]1(CC2)CC(=O)N(C2CCCC2)C1` [Compound I-152, (R)-1′-cyclopentyl-N-hydroxy-5′-oxo-3,4-dihydro-1H-spiro[naphthalene-2,3′-pyrrolidine]-7-carboxamide], in test [1], the negative logarithm of the IC50 (pIC50) was no less than 7.00.
Same read-out and setting: as for `O=C(NO)c1ccc2c(c1)C[C@@]1(CC2)CC(=O)N(C2CCC2)C1` [Compound I-151, (S)-1′-cyclobutyl-N-hydroxy-5′-oxo-3,4-dihydro-1H-spiro[naphthalene-2,3′-pyrrolidine]-7-carboxamide], the figure is no less than 7.00; as for `O=C(NO)c1ccc2c(c1)C[C@]1(CC2)CC(=O)N(C2CCC2)C1` [Compound I-150, (R)-1′-cyclobutyl-N-hydroxy-5′-oxo-3,4-dihydro-1H-spiro[naphthalene-2,3′-pyrrolidine]-7-carboxamide], no less than 7.00.
